Data on 15 molecules can be found in PubChem BioAssay AID280 (DTP/NCI, 2004).

In this assay the test system is nude mice, LOX melanoma ip, survival T/C. Nature of the assay: NCI In Vivo Anticancer Drug Screen. Data for tumor model Human Amelanotic Melanoma (LOX) (intraperitoneal) in NU/NU BALB/C (nude) mice. The settings on record: endpoint: median survival time, schedule: Q04DX003 (ip), higher = longer survival. As to the method: The antitumor activity of compounds was measured in mice bearing transplantable tumors. Survival or tumor size were measured and the results are expressed as the measurement made in the treated group (T) divided by the measurement made in the vehicle treated control group (C). The tumor model used in this assay is Human Amelanotic Melanoma (LOX) (intraperitoneal) in NU/NU BALB/C (nude) mice

The mark [1] stands for this setting: dose: 150.0 mg/kg/injection, vehicle: saline with Tween-80.
Where [2] appears, read: dose: 12.5 mg/kg/injection, vehicle: saline with Tween-80.
Where [3] appears, read: dose: 25.0 mg/kg/injection, vehicle: saline with Tween-80.
Setting [4] is: dose: 50.0 mg/kg/injection, vehicle: saline with Tween-80.
[5] abbreviates: dose: 100.0 mg/kg/injection, vehicle: saline with Tween-80.
[6] abbreviates: dose: 6.25 mg/kg/injection, vehicle: Klucel (hydroxypropylcellulose) (HPC).
Setting [7] is: dose: 25.0 mg/kg/injection, vehicle: Klucel (hydroxypropylcellulose) (HPC).
[8] abbreviates: dose: 100.0 mg/kg/injection, vehicle: Klucel (hydroxypropylcellulose) (HPC).
Setting [9] is: dose: 400.0 mg/kg/injection, vehicle: Klucel (hydroxypropylcellulose) (HPC).
Where [10] appears, read: dose: 10.0 mg/kg/injection, vehicle: Klucel (hydroxypropylcellulose) (HPC).
The mark [11] stands for this setting: dose: 12.5 mg/kg/injection, vehicle: Klucel (hydroxypropylcellulose) (HPC).

Molecules are shown by their SMILES. Where “and” joins values, the source holds several entries; their conditions need not be identical. Equal entries are not always repeated. Inconclusive results and toxic doses are left out.

On to `O=C1c2cccc(NCCCNCCO)c2C(=O)c2cccc(NCCCNCCO)c21`, for which the T/C (dose: 4.69 mg/kg/injection, vehicle: saline) was 116 % of control; the T/C (dose: 6.75 mg/kg/injection, vehicle: acid diluted with saline) is 113 % of control and 97 % of control; the T/C (dose: 9.38 mg/kg/injection, vehicle: saline) is 124 % of control; the T/C (dose: 11.0 mg/kg/injection, vehicle: acid diluted with saline) was 117 % of control; the T/C (dose: 11.25 mg/kg/injection, vehicle: acid diluted with saline) was 97 % of control; the T/C (dose: 18.7 mg/kg/injection, vehicle: acid diluted with saline) was 111 % of control. Further, the T/C runs as follows: (dose: 18.75 mg/kg/injection, vehicle: acid diluted with saline) 106 % of control; (dose: 31.25 mg/kg/injection, vehicle: acid diluted with saline) 112 % of control; (dose: 37.5 mg/kg/injection, vehicle: saline) 105 % of control; (dose: 75.0 mg/kg/injection, vehicle: saline) 86 % of control.

In the case of `CCCCCCNc1nc(NCCCCCC)c2[nH]c(NCCCCCC)nc2n1`, the T/C runs as follows: (dose: 37.5 mg/kg/injection, vehicle: saline with Tween-80) 123 % of control; under setting [1], 122 % of control.

For `[CH3][Sn]([CH3])([Cl])[S]CCN`, the T/C (dose: 6.25 mg/kg/injection, vehicle: saline with Tween-80) was 101 % of control; the T/C under setting [2] was 109 % of control; the T/C under setting [3] was 105 % of control; the T/C under setting [4] is 115 % of control; the T/C under setting [5] was 103 % of control.

Regarding `O=C1c2ccccc2C(=O)c2c1cn1c2Cc2ccccc2C1`, the T/C is, setting by setting: under setting [6], 91 % of control; under setting [7], 93 % of control; (dose: 50.0 mg/kg/injection, vehicle: Klucel (hydroxypropylcellulose) (HPC)) 109 % of control and 95 % of control; under setting [8], 90 % of control; (dose: 200.0 mg/kg/injection, vehicle: Klucel (hydroxypropylcellulose) (HPC)) 91 % of control; under setting [9], 95 % of control.

`COc1ccccc1/C=C/C(=O)c1ccccc(=O)c1O`: the T/C reads like this: (dose: 9.38 mg/kg/injection, vehicle: Klucel (hydroxypropylcellulose) (HPC)) 98 % of control; (dose: 18.75 mg/kg/injection, vehicle: Klucel (hydroxypropylcellulose) (HPC)) 89 % of control; (dose: 37.5 mg/kg/injection, vehicle: Klucel (hydroxypropylcellulose) (HPC)) 98 % of control; (dose: 75.0 mg/kg/injection, vehicle: Klucel (hydroxypropylcellulose) (HPC)) 110 % of control; (dose: 150.0 mg/kg/injection, vehicle: Klucel (hydroxypropylcellulose) (HPC)) 103 % of control.

On to `CC1C(c2ccccc2)OC(N2CCOCC2)C(C)(C)CN1C` (configuration not stated), for which the T/C runs as follows: (dose: 75.0 mg/kg/injection, vehicle: saline with Tween-80) 105 % of control; under setting [1], 93 % of control; (dose: 300.0 mg/kg/injection, vehicle: saline with Tween-80) 90 % of control.

In the case of `CO[C@@H]1C2=CC=CC=C[C@H]2n2c(=O)n(C)c(=O)n21`, the T/C is 104 % of control (dose: 37.5 mg/kg/injection, vehicle: other); 105 % of control (dose: 75.0 mg/kg/injection, vehicle: other); 102 % of control (dose: 150.0 mg/kg/injection, vehicle: other).

With `COc1c(O)cc2c(c1OC)-c1ccc(SC)c(=O)cc1C(NC(C)=O)CC2` (configuration not stated), the T/C is 114 % of control (dose: 4.0 mg/kg/injection, vehicle: other); 151 % of control and 252 % of control (dose: 5.0 mg/kg/injection, vehicle: Klucel (hydroxypropylcellulose) (HPC)); 111 % of control and 116 % of control (dose: 5.9 mg/kg/injection, vehicle: other); 117 % of control (dose: 8.9 mg/kg/injection, vehicle: other); 151 % of control and 305 % of control under setting [10]; 151 % of control and 156 % of control (dose: 20.0 mg/kg/injection, vehicle: other).

On to `CC1c2ccccc2CC(CCN(C)C)c2ccccc21` (configuration not stated), for which the T/C is 109 % of control under setting [2], 114 % of control under setting [3], 114 % of control under setting [4] and 109 % of control under setting [5].

On to `CCC(=O)[O][Bi]([c]1ccccc1)[c]1ccccc1`, for which the T/C reads like this: (dose: 3.13 mg/kg/injection, vehicle: Klucel (hydroxypropylcellulose) (HPC)) 93 % of control; under setting [6], 88 % of control; under setting [11], 110 % of control; under setting [7], 100 % of control.

As for `BrC[P+](CBr)(CBr)CBr`, the T/C under setting [4] was 113 % of control; the T/C under setting [5] is 121 % of control; the T/C (dose: 200.0 mg/kg/injection, vehicle: saline with Tween-80) was 105 % of control; the T/C (dose: 400.0 mg/kg/injection, vehicle: saline with Tween-80) was 103 % of control; the T/C (dose: 800.0 mg/kg/injection, vehicle: saline with Tween-80) is 119 % of control.

As for `COc1ccc2c(ccc3oc([N+](=O)[O-])cc32)c1`, the T/C is, setting by setting: under setting [8], 121 % of control; (dose: 120.0 mg/kg/injection, vehicle: Klucel (hydroxypropylcellulose) (HPC)) 170 % of control; under setting [9], 86 % of control.

For the molecule `CC(=O)C[n+]1ccc(C)cc1Sc1ccccc1C`, the T/C is 93 % of control under setting [2], 99 % of control under setting [3], 95 % of control under setting [4] and 88 % of control under setting [5].

For the molecule `CN=C(NC)c1ccc(NC(=O)/C=C\c2ccc(/C=C/C(=O)Nc3ccc(C(=NC)NC)cc3)cc2)cc1`, the T/C is, setting by setting: (dose: 0.78 mg/kg/injection, vehicle: Klucel (hydroxypropylcellulose) (HPC)) 104 % of control; (dose: 1.56 mg/kg/injection, vehicle: Klucel (hydroxypropylcellulose) (HPC)) 109 % of control; (dose: 2.0 mg/kg/injection, vehicle: Klucel (hydroxypropylcellulose) (HPC)) 90 % of control; (dose: 2.25 mg/kg/injection, vehicle: Klucel (hydroxypropylcellulose) (HPC)) 101 % of control; (dose: 3.75 mg/kg/injection, vehicle: Klucel (hydroxypropylcellulose) (HPC)) 87 % of control; (dose: 4.0 mg/kg/injection, vehicle: Klucel (hydroxypropylcellulose) (HPC)) 105 % of control. Besides, the T/C by setting is: (dose: 6.0 mg/kg/injection, vehicle: Klucel (hydroxypropylcellulose) (HPC)) 111 % of control; under setting [10], 105 % of control; (dose: 11.0 mg/kg/injection, vehicle: Klucel (hydroxypropylcellulose) (HPC)) 98 % of control; under setting [11], 109 % of control; (dose: 17.0 mg/kg/injection, vehicle: Klucel (hydroxypropylcellulose) (HPC)) 90 % of control; (dose: 18.0 mg/kg/injection, vehicle: Klucel (hydroxypropylcellulose) (HPC)) 95 % of control.

Consider `NCCCC(N)(C(=O)O)C(F)F` (configuration not stated), for which the T/C is 112 % of control (dose: 75.0 mg/kg/injection, vehicle: distilled water + alcohol); 111 % of control (dose: 150.0 mg/kg/injection, vehicle: distilled water + alcohol); 101 % of control (dose: 300.0 mg/kg/injection, vehicle: distilled water + alcohol); 97 % of control (dose: 600.0 mg/kg/injection, vehicle: distilled water + alcohol); 106 % of control (dose: 1200.0 mg/kg/injection, vehicle: distilled water + alcohol).
